Test results taken from patent publication US12129313B2, “Anti-inflammatory use of peptide” (ENLITISA (SHANGHAI) PHARMACEUTICAL CO., LTD, priority 2017, dated 2024).
Where no end group is shown, it is not given here. [ ]: non-standard residue; d: D form. Dopa = N[C@@H](Cc1ccc(O)c(O)c1)C(=O)O; Hyp = O=C(O)[C@@H]1C[C@@H](O)CN1

How the values were obtained:
IFN-γ = assay: Air pouch model: ELISA of exudate for IFN-γ; assay type: in vivo, mice; settings: ±SD, doses and timing per Table 1
Procedure: (§1) Air pouches were produced by subcutaneous injection of sterile air (5 mL) into the intrascapular area of the mice. After three days, another injection of air (3 mL) was performed to maintain the pouches. In order to induce acute inflammation, three days after this final injection, animals received an injection of sterile carrageenan solution (CP Kelco, Taixing, Jiangsu Province, China; 1%, 0.5 mL; produced by adding 0.1 g of carrageenan powder into a beaker containing 10 mL of 0.9% saline solution and stirring). Mice were pre-treated with test samples or vehicle 1 hour before and 23 hours after the carrageenan injection into the subcutaneous air pouch. […]
(§2) Exudates were collected and volumes were quantified. The total number of cells was determined with a haematocytometer (ADVIA 2120 Hematology System, Siemens Healthineers). The exudates were centrifuged at 3000 rpm for 10 minutes at 4° C., and the supernatants were collected and stored at −20° C. for ELISA analysis using standard ELISA test kits (Biolegend™ from Dakewe Biotech Co., Beijing, China or Abcam™, Abcam (Shanghai) Trading Co. Ltd, China) and an ELISA reader (SH-1000 Hitachi, Japan) for tissue necrosis factor alpha (TNF-α), interleukin 1 beta (IL-1β), interleukin 6 (IL-6), interleukin 10 (IL-10), prostaglandin E2 (PGE2), interferon gamma (IFN-γ) and 5-hydroxytryptamine (5-HT; serotonin). […]

C57BL/6 mice [1] = assay: Acute wound model: wound contraction ratio; assay type: in vivo
Procedure: 6-8 weeks old male C57BL/6 mice were supplied by Changzhou Ovens Experimental Animal Co. Ltd (Changzhou, Jiangsu Province, China). Prior to any experiments being conducted, mice were housed under standardized conditions (at a constant temperature of 22±2° C., with alternating 12 hour periods of light and darkness), and were fed on a standard mouse diet with water, for about a week.
General anesthesia was induced using intraperitoneal 3% chloral hydrate (1 mL/10 g of body weight). The hair on the back was shaved by a baby hair shaver and depilated with cream. The skin area was wiped and sterilized with 75% alcohol twice.
An EMS skin biopsy punch (Electron Microscopy Sciences, P.O. Box 550, 1560 Industry Road, Hatfield, PA, USA) with 8 mm diameter was used to make a round wounds on each side of the midline of the back. The full thickness of skin was removed and the depth of the wound reached the fascia. Wounds were left open without a suture.
Different drugs were administrated topically at 50 μL/wound, once daily from Day 0 to Day 12, as show in Table 8 below. […] The model group was given same amount of normal saline. There were 12 mice in each group.
For this experiment, MAP Peptide was obtained from GL Biochem (Shanghai) Ltd. The peptide powder was stored at −20° C. and dissolved in saline at a concentration of 33 μg/m L.
20 μL of respective solutions were applied onto each wound surface in the relevant groups.
Wounds were dressed with gauze and transparent dresser after drug administration. Photographs were taken for each wound every other day from Day 0. Photos were scanned into a computer, and wound areas calculated using ImageJ image analysis software (National Institutes of Health, […]).
Photographs were taken for each wound every other day from Day 0. Wound healing was calculated by the wound contraction ratio (WCR) WCR=(A0−At)/A0×100% where A0 and At refer to the initial area at Day 0 and the wound area at the date of measurement (time t), respectively.

C57BL/6 mice [2] = assay: Air pouch model: histology scoring of pouch wall (HE stained slices); assay type: in vivo; set-up: key to Inflammation score / Edema Score / Motility score: 1 = mild, 2 = moderate, 3 = severe
Procedure: (§3) Air pouches were produced by subcutaneous injection of sterile air (5 mL) into the intrascapular area of the mice. After three days, another injection of air (3 mL) was performed to maintain the pouches. In order to induce acute inflammation, three days after this final injection, animals received an injection of sterile carrageenan solution (CP Kelco, Taixing, Jiangsu Province, China; 1%, 0.5 mL; produced by adding 0.1 g of carrageenan powder into a beaker containing 10 mL of 0.9% saline solution and stirring). Mice were pre-treated with test samples or vehicle 1 hour before and 23 hours after the carrageenan injection into the subcutaneous air pouch. Animals were sacrificed 24 hours after the carrageenan injection.
Skin biopsies were taken from the air pouches. A part of the biopsy was fixed in formalin (produced by adding ultra pure water to 50 mL of a 40% formaldehyde solution (Nanchang Rain Dew Experimental Equipment Co., Ltd., Nanchang, […] Provence, China) up to a total volume of 500 mL) and analyzed by histological embedding in paraffin wax, sectioning and staining.
The histological specimens were analysed and an inflammation score, a motility score, an edema score and […] were estimated as follows.
The HE stained slices were observed under an optical microscope and were scored (1, 2 or 3 points) according to the perceived inflammation level (in cases showing only a small amount of inflammatory cells scattered in the area—1 point (mild); in cases where many inflammatory cells were observed—2 points (moderate); and, in cases with diffuse infiltration—3 points (severe)). A similar scoring system was employed for edema levels (3 points for most severe and 1 point for mild) after overall observation. Motility scores represented the density of neutrophils, which employed the same methodology as that employed for inflammatory cells.

C57BL/6 mice [3] = assay: Air Pouch Model II: histology scoring; assay type: in vivo
Procedure: (§4) Essentially the same procedure as that described in Example 1 above was followed, to treat mice by administering test samples or vehicle in accordance with Table 6 below.
(§5) In this example, MAP Peptide powder was dissolved in saline water at a concentration of 0.6 mg/mL at pH 5.5. Then 0.5 mL of the solution was injected into each air pouch in the group.

C57BL/6 mice [4] = assay: Air pouch model (carrageenan): exudate volume, pouch wall weight, exudate cell count; assay type: in vivo; set-up: Neutrophil (total cell count and classification) / Monocyte (total cell count and classification): unit not given here
Procedure: Healthy adult male C57BL/6 mice weighing between 20 and 30 g were supplied by Nanjing Biomedical Research Institute (NBRI) of Nanjing University, China. Prior to any experiments being conducted, mice were housed under standardized conditions (at a constant temperature or 22±2° C., with alternating 12 hour periods of light and darkness), and were fed on a standard mouse diet with water, for about a week.
General anesthesia was induced using intraperitoneal 3% chloral hydrate (Sinopharm Chemical Reagent Co., Ltd., Shanghai, China); 1 mL/10 g of body weight). The hair of the entire dorsum was shaved and depilated 1 day before sterile air injection.
as §3
The cavity was washed with 4 mL of sterile phosphate buffer solution (pH 7.4; prepared by dissolving 4 g of NaCl, 0.1 g of KCl, 1.749 g of Na2HPO4.12H2O and 0.1 g of KH2PO4 in ultrapure water, adjusting the pH to 7.4 with HCl and diluting with water to a total volume of 500 mL).
Exudates were collected and volumes were quantified. The total number of cells was determined with a haematocytometer (ADVIA 2120 Hematology System, Siemens Healthineers). The exudates were centrifuged at 3000 rpm for 10 minutes at 4° C., and the supernatants were collected and stored at −20° C. for ELISA analysis using standard ELISA test kits (Biolegend™ from Dakewe Biotech Co., Beijing, China or Abcam™, Abcam (Shanghai) Trading Co. Ltd, China) and an ELISA reader (SH-1000 Hitachi, Japan) for tissue necrosis factor alpha (TNF-α), interleukin 1 beta (IL-1β), interleukin 6 (IL-6), interleukin 10 (IL-10), prostaglandin E2 (PGE2), interferon gamma (IFN-γ) and 5-hydroxytryptamine (5-HT; serotonin).
After conducting some preliminary experiments to validate the model, an experiment was conducted in which mice were treated by administering test samples or vehicle in accordance with Table 1 below.
In Table 1, the M1-B, M2-B, M1-A and M2-A samples are MAP (Mefp-1) solutions of specified concentrations administered at different times relative to the carrageenan injection, as specified in the table. The solutions were prepared as follows. Blue mussels were harvested in the coastal area of Shandong Province, China. Mussel feet were collected, cut into small pieces and homogenized in an extraction buffer comprising 5% acetic acid in 4 mol/L of aqueous urea. The crude extracts were collected after centrifuging and then purified by liquid chromatography. The purified protein (semi-finished product; concentration 8 mg/mL; purity as measured by HPLC 91.72%; pH 4.2) was stored at 0° C. The solutions that were employed below were prepared by adding saline solution to this semi-finished product to obtain the concentrations described in Table 1.
Also in Table 1, “Test” is MAP Peptide, which was obtained from Innovagen AB, Sweden. The peptide was synthesized according to the relevant Mefp-1 amino acid sequence. The peptide powder was stored at −20° C. and dissolved in saline water at a concentration of 3.0 mg/mL, pH 5.5.
Dexamethasone (MedChemExpress, Shanghai, China) was obtained in powder form and dissolved in ultrapure water to obtain a solution with a concentration as described in Table 1.
All the substances listed in Table 1 were administrated topically by directly injecting into the air pouches.

TNF-α = assay: Air pouch model: ELISA of exudate for TNF-α; assay type: in vivo, mice; settings: ±SD, doses and timing per Table 1
Procedure: as §1, §2

TNF-α, IL-6, and IL-1β = assay: Air Pouch Model II: ELISA of exudate; assay type: in vivo, mice; settings: 300 μg/mouse into air pouch; FIGS. 2A-2C
Procedure: as §4, §5
In this example, ELISA analysis was carried out for TNF-α, IL-6, and IL-1β, which are shown graphically in FIGS. 2A-2C, respectively.

[5] = test system: polymorphous light eruption; assay: MAP Peptide liquid spray in subjects with polymorphous light eruption; assay type: in vivo; settings: 1.5 mg/mL spray in WFI
Procedure: MAP Peptide was dissolved in water for injection (WFI; prepared from TC-RO-0.25T/h-2 water treatment system, Yangzhou […] Treatment Devices & Engineering Co., Ltd., Yangzhou, China). The concentration of the solution was 1.5 mg/mL. The solution was loaded into a spray device. Enrolled subjects in the study were diagnosed with polymorphous light eruption (an inflammatory condition characterized by a rash caused by sun exposure in people who have developed sensitivity to sunlight). Prior to treatment, the patients presented symptoms including skin redness, papules, itching and swelling. Subjects were required to use the liquid spray in the morning and the evening after facial cleansing.

IL-6 = assay: Air pouch model: ELISA of exudate for IL-6; assay type: in vivo, mice; settings: ±SD, doses and timing per Table 1
Procedure: as §3
Exudates were collected and volumes were quantified. […] The exudates were centrifuged at 3000 rpm for 10 minutes at 4° C., and the supernatants were collected and stored at −20° C. for ELISA analysis using standard ELISA test kits (Biolegend™ from Dakewe Biotech Co., Beijing, China or Abcam™, Abcam (Shanghai) Trading Co. Ltd, China) and an ELISA reader (SH-1000 Hitachi, Japan) for tissue necrosis factor alpha (TNF-α), interleukin 1 beta (IL-1β), interleukin 6 (IL-6), interleukin 10 (IL-10), prostaglandin E2 (PGE2), interferon gamma (IFN-γ) and 5-hydroxytryptamine (5-HT; serotonin).

[6] = ±SD, topical once daily, MAP 5 μg/wound, MAP Peptide 6.57 μg/wound
[7] = histological description in words
[8] = 300 μg/mouse into air pouch, 1 hour before carrageenan
[9] = air pouch exudate, doses and timing per Table 1

AKPSY[Hyp][Hyp]T[Dopa]K [MAP Peptide]
IFN-γ (IFN-γ): 377.31 ± 198.68 | improvement rate, (WCR MAP Peptide Group−WCR MAP Group)/WCR MAP Group×100% (C57BL/6 mice [1]; Day 6, versus MAP group): 52.96% | effect on wound healing compared with MAP (C57BL/6 mice [1]; acute wound model, Table 9): stronger effect on wound healing than MAP | wound contraction ratio (WCR), Day 2 (C57BL/6 mice [1]; [6]): 6.99 ± 2.02% | wound contraction ratio (WCR), Day 4 (C57BL/6 mice [1]; [6]): 18.65 ± 1.87% | wound contraction ratio (WCR), Day 6 (C57BL/6 mice [1]; [6]): 42.91 ± 0.57% | wound contraction ratio (WCR), Day 8 (C57BL/6 mice [1]; [6]): 48.73 ± 1.65% | wound contraction ratio (WCR), Day 0 (C57BL/6 mice [1]; ±SD, topical once daily, MAP 5 μg/wound, MAP Peptide 6.57 μg/wound, 8 mm full thickness wound): 0.00 ± 0% | Motility score (C57BL/6 mice [2]; density of neutrophils, 1 to 3 points, doses and timing per Table 1): 1.00 | chronic inflammatory cell infiltration of the pouch wall (C57BL/6 mice [2]; [7]): mild to moderate chronic inflammatory cell infiltration | edema of the pouch wall (C57BL/6 mice [2]; [7]): interstitial edema | neutrophil infiltration of the pouch wall (C57BL/6 mice [2]; [7]): a small amount of neutrophil infiltration | Edema Score (C57BL/6 mice [2]; pouch wall histology, 1 mild to 3 most severe, doses and timing per Table 1): 1.00 | Inflammation score (C57BL/6 mice [2]; pouch wall histology, 1 mild to 3 severe, doses and timing per Table 1): 1.67 | Sum (C57BL/6 mice [2]; sum of inflammation, edema and motility scores): 3.67 | Inflammation score (C57BL/6 mice [3]; 300 μg/mouse (0.6 mg/mL, 0.5 mL) into air pouch, 1 hour before carrageenan): 1.6 | Edema Score (C57BL/6 mice [3]; [8]): 1.8 | Fibroplastic proliferation score (C57BL/6 mice [3]; [8]): 0.2 | Sum (C57BL/6 mice [3]; 300 μg/mouse, printed sums equal inflammation + edema scores only): 3.4 | Leukocyte (total cell count and classification) (C57BL/6 mice [4]; [9]): 4.74e+06 mL⁻¹ | Monocyte (total cell count and classification) (C57BL/6 mice [4]; [9]): 81.54 ×10^6 | Neutrophil (total cell count and classification) (C57BL/6 mice [4]; [9]): 296.32 ×10^6 | Pouch Wall Weight (C57BL/6 mice [4]; mean ± SD, 24 hours after carrageenan, doses and timing per Table 1): 0.60 ± 0.17 g | Exudate volume (C57BL/6 mice [4]; mean ± SD, 24 hours after carrageenan, injected into air pouch, per mouse: Positive 200 μg, M1-B/M1-A/Test 1.5 mg, M2-B/M2-A 4.5 mg, timing 1 hour (Positive, -B, Test) or 6 hours (-A), Table 1): 3.43 ± 0.06 mL | TNF-α (TNF-α): 58.49 ± 28.72 | anti-inflammatory effects (ELISA for TNF-α, IL-6, IL-1β) (TNF-α, IL-6, and IL-1β): very strong anti-inflammatory effects | erythema alleviation efficiency compared to MAP spray of same concentration [5]: much more rapid erythema alleviation efficiency | malaise [5]: inhibited malaise | subjects whose erythema completely disappeared in a few hours [5]: 50% | tested subjects with itch completely relieved within 1 minute [5]: 50% | time to alleviation of most of the observed erythema [5]: ≤ 1 min | time to relief of itching ([5]; morning and evening): ≤ 1 min | IL-6 (IL-6): 132.63 ± 137.34
